From patent US10689708B2, “Methods for treating diffuse large B-cell lymphoma and the use of biomarkers as a predictor of responsiveness to drugs” (Celgene Corporation, priority 2015, dated 2020)

Test system: relapsed or refractory DLBCL
Experiment: Compound A treatment of relapsed or refractory DLBCL patients stratified by 26-gene (Table 2) classifier: PFS and tumor measurement
Type: in vivo, human
Conditions: for PFS: Compound A treatment (FIG. 3)
Excerpt: In another exemplary study, a computational decision function was applied to gene expression values for the 26 genes in Table 2 to predict the positive/negative outcome sub-group membership of relapsed or refractory DLBCL patients for responsiveness to Compound A treatment alone or in combination with other agents.
The response to Compound A treatment of each of a group of relapsed or refractory DLBCL patients was predicated based on the gene expression levels of 26 genes of Table 2, and the group of patients were classified into two populations—the population predicted to be responsive to Compound A treatment (26 genes positive population) and the other population predicted to be not responsive to Compound A (26 genes negative population).
The expression levels of the 26 genes were measured as follows: DLBCL lymph-node biopsies were formalin fixed and paraffin embedded. Nucleic acids obtained from the tissues were extracted using the Roche High Pure FPPET kit, according to the manufacturer's instructions. The RNA was quantitated using spectrophotometry (NanoDrop, Thermo Science, DE). Gene expression on approximately 200 nanograms of RNA was used to determine gene expression levels by means of NanoString technology (NanoString Technologies, WA). The total RNA was hybridized to the custom codesets at 65° C. overnight. The reaction was processed on the nCounter™ Prep Station and gene expression data was then acquired on the nCounter™ Digital Analyzer.
Then, the patients' response to Compound A treatment were measured by progression free survival (PFS). The results are shown in FIG. 3, and as shown, that there is a significant benefit, as measured by PFS, of 26 gene positive population (upper line) as compared to 26 genes negative population (lower line) (PFS 17.43 weeks in 26 genes positive population versus PFS 6.57 weeks in 26 genes negative population).
Additionally, the response to Compound A of DLBCL patients with historically poor prognosis was measured by Nanostring. […] This is comparison to patients in the 26 genes positive population (blue line), in which 4 patients obtained a durable clinical response of greater than 50% decrease in tumor size (see FIG. 8). Similar results were observed when examining patients with primary refractory DLBCL that had also had at least 3 or more prior lines of therapy (see FIG. 9).

Cc1nc2cccc(N)c2c(=O)n1C1CCC(=O)NC1=O (centres unmarked) [Compound A, 3-(5-amino-2-methyl-4-oxo-4H-quinazolin-3-yl)-piperidine-2,6-dione]
PFS at 6 months (26 genes negative population): 5.4%
PFS (26 genes negative population): 6.57 weeks
PFS at 6 months (26 genes positive population): 44.6%
PFS (26 genes positive population): 17.43 weeks
median PFS (ABC subtype of DLBCL (FIG. 7)): 12.1 weeks
median PFS (GCB subtype of DLBCL (FIG. 7)): 15.6 weeks
tumor measurement, clinical response (majority of patients in the 26 genes negative population (FIG. 5)): rapid progression or short responses
tumor measurement, clinical response (majority of patients in the 26 genes positive population (FIG. 4)): clinical response of greater than 50% decrease in tumor size and/or have stable disease
tumor measurement, clinical course (primary refractory disease (less than complete response to R-CHOP), 26 genes negative population (FIG. 8)): experienced rapid progression
patients who obtained a durable clinical response of greater than 50% decrease in tumor size (primary refractory disease (less than complete response to R-CHOP), 26 genes positive population (FIG. 8)): 4 patients
median PFS (unclassified subtype of DLBCL (FIG. 7)): 7 weeks
